Data reported in patent publication US6586368B1, “Condensed heterocylic compounds and herbicides containing them” (Sumitomo Chemical Company, Limited, priority 1998, dated 2003).

What was measured:
Format in all cases: in vivo
[1] = tested on: barnyardgrass (Echinochloa oryzicola); test: Test Example 4: flooded paddy field treatment of barnyardgrass in pots, herbicidal activity; conditions: emulsifiable concentrate applied on the water surface of flooded pots, dosage of 1000 g/ha, 50 liters per are, plants 12 days after seeding, examined after 9 days in greenhouse
[2] = tested on: velvetleaf (Abutilon theophrasti); test: Test Example 3: soil surface treatment, velvetleaf seeded in pots, herbicidal activity; conditions: emulsifiable concentrate sprayed over the surface of the soil after seeding, dosage of 2000 g/ha, 1000 liters per hectare, examined after 9 days in greenhouse
[3] = tested on: velvetleaf (Abutilon theophrasti); test: Test Example 1: foliage treatment of velvetleaf in pots, herbicidal activity; conditions: emulsifiable concentrate sprayed over the foliage, dosage of 2000 g/ha, 1000 liters per hectare, plants 14 days after seeding, examined after 8 days in greenhouse
[4] = tested on: velvetleaf (Abutilon theophrasti); test: Test Example 2: foliage treatment of velvetleaf in pots, herbicidal activity; conditions: emulsifiable concentrate sprayed over the foliage, dosage of 8000 g/ha, 1000 liters per hectare, plants 14 days after seeding, examined after 5 days in greenhouse
Description: Cylindrical plastic pots of 10 cm in diameter and 10 cm in depth were filled with soil, seeded with velvetleaf (Abutilon theophrasti), and kept in a greenhouse for 14 days. After that, according to Formulation Example 2, compound 2-2001 or 3-2001 was formulated into an emulsifiable concentrate, which was diluted in a prescribed amount with water containing a spreading agent and then uniformly sprayed over the foliage of the plants with a sprayer at a ratio of 1000 liters per hectare. The pots were further kept in the greenhouse for 5 days and examined for herbicidal activity.

SMILES	herbicidal activity: growth of barnyardgrass [1]	herbicidal activity: germination of velvetleaf [2]	herbicidal activity: growth of velvetleaf [3]	herbicidal activity: kill of velvetleaf [4]
CCOC(=O)C(Cl)Cc1ccc2occ(-n3c(=O)cc(C(F)(F)F)n(C)c3=O)c2c1 (centres unmarked) [Compound 1-407]	completely inhibited the growth	completely inhibited the germination	completely inhibited the growth	
Cn1c(C(F)(F)F)cc(=O)n(-c2coc3cc([N+](=O)[O-])c(F)cc23)c1=O [Compound 1-431]	completely inhibited the growth	completely inhibited the germination	completely inhibited the growth	
Cn1c(C(F)(F)F)cc(=O)n(-c2coc3cc(Cl)ccc23)c1=O [Compound 1-861]	completely inhibited the growth	completely inhibited the germination	completely inhibited the growth	
O=C1C2=C(CCCC2)C(=O)N1n1ccc2ccccc21 [Compound 2-2001]				completely killed
O=c1cc(C(F)(F)F)ncn1-n1ccc2ccccc21 [Compound 3-2001]				completely killed
